These results are taken from EP1016405A2, “Arylating medicaments” (Radopath Pharmaceuticals International Limited, priority 1993, dated 1994).

By CC50 is commonly meant the concentration at which the toxic effect on the cells reaches its halfway point. Low values mean harm at low concentration, high ones better tolerance by the cells. The IC50 is the point on the concentration scale where inhibition reaches its midpoint.

The test system of data set [1] is B16 murine melanoma. The data set can be described thus: Anti-tumour activity against B16 melanoma in C57/black mice, tumour weight inhibition. Type of data set: in vivo, female C57/black mice. The settings on record: statement in words, refers to Table 8.
The nature of data set [2]: Anti-tumour activity in vitro. The settings on record: statement in words.
Data set [3] in a line: in vivo. As to conditions: mouse, ip.
Data set [4] deals with MAC15A (murine adenocarcinoma colon). Nature of the data set: Anti-tumour activity against MAC15A ascites tumour, survival T/C%. It counts as in vivo, mice. The settings on record: ip.
Data set [5] deals with uninfected cells.
Data set [6] in a line: in vitro. The settings on record: CC50 (Toxicity).
In data set [7] the test system is MAC16, murine colon adenocarcinoma. Nature of the data set: Anti-tumour activity against MAC16, tumour weight inhibition. Type of data set: in vivo. As to conditions: for % Tumour Weight Inhibition: day 11 after beginning of treatment, sc transplant, corn oil. The procedure: (§1) The purpose of these studies was to evaluate the anti-tumour properties of a group of compounds with structural similarities that may act as arylating agents. Their in vivo anti-tumour responses were assessed against two ascitic tumours, the MAC15A murine colon adenocarcinoma and the P388 murine leukaemia and various solid tumour models.
(§2) The MAC15A ascites tumour cells were transplanted into male NMR1 mice by ip inoculation at a cell density of 1 X 10^5 cells in 200µl buffer (Table 1). The P388 were transplanted ip into male BDF1 mice at cell density of 1 X 10^6 cells in 200µl buffer (Table 2). The solid tumour models included the MAC13 and MAC16 murine colon adenocarcinomas, the B16 F1 murine melanoma and the M5076 reticulum cell sarcoma.
(§3) Treatment commenced 3 days after ip transplant or, in the case of solid tumours such as MAC13 and MAC16, treatment commenced when average tumour volumes reached 40mm^3.
(§4) The animals were sacrificed after 12 days or when tumours ulcerated, tumour volume exceeded 1000mm^3 or loss of body weight exceeded 50%.
(§5) Except where otherwise stated, the compounds used were dissolved in DMSO and diluted in sterile distilled water, at appropriate concentrations before administration in a solvent volume of 200 µl. Anti-tumour responses were obtained by comparing the median survival times or tumour growth inhibition against solvent controls.

Assay in data set [8]: as above
The settings on record: mouse, in vivo; Table 7; ip, per day; corn oil; read-out: maximum tolerated dose. It counts as in vivo, murine. As to the method: as §1, §2, §3, §4, §5

Data set [9] relates to B16F1-murine melanoma. The settings on record: mouse, in vivo.
The nature of data set [10]: Anti-tumour activity against MAC13, tumour weight inhibition. Type of data set: in vivo, murine. The settings on record: mouse, in vivo; Table 6; ip, per day; corn oil; read-out: maximum tolerated dose. As to the method:
as §1, §2, §3, §4, §5

In data set [11] the test system is MAC13 murine colon adenocarcinoma. The description is as above. It counts as in vivo. As to conditions: 12 days after im transplant, corn oil. As to the method: as §1, §2, §3, §4, §5
Data set [12] relates to HIV-1IIIB. Nature of the data set: Acute infection assay against HIV-1IIIB. Type of data set: cell-based, human immunodeficiency virus. As to conditions: for IC50: Human immunodeficiency virus 1, IIIB, read-out: IC50 (Antiviral).
In data set [13] the test system is M5076 reticulum cell sarcoma. Nature of the data set: Anti-tumour activity against M5076 reticulum cell sarcoma. The settings on record: statement in words. Type of data set: in vivo, murine. The procedure:
as §1, §2, §3, §4, §5

For data set [14], the system named is P388 (murine leukaemia). Nature of the data set: Anti-tumour activity against P388 ascites tumour, survival T/C%. It counts as in vivo, mice. The settings on record: Table 2, mean, day 1 to 5. The procedure:
as §1, §2, §3
The animals were located in both cases into groups of 5 to 8 animals.
as §4
Except where otherwise stated, the compounds used were dissolved in DMSO and diluted in sterile distilled water, at appropriate concentrations before administration in a solvent volume of 200 µl. […]
T/C% is determined as follows:- […]

For data set [15], the system named is HIV-1RF. Nature of the data set: Acute Infection Assay, HIV core antigen ELISA in C8166 cells. Type of data set: cell-based, human immunodeficiency virus. For orientation: In an ELISA, binding on a coated surface is turned into a signal by an enzyme label.

The structures appear in SMILES notation. Several values for one entry are separate records, joined by “and”; a condition that tells them apart may be missing. Equal values may be shown once. Read-outs that look alike come from different tables or passages of the source.

As for `O=C(O)c1cc([N+](=O)[O-])ccc1Cl` [2-chloro-5-nitrobenzoic acid], the “anti-tumour activity in vivo” value in [1] is listed as “shows consideration anti-tumour activity in vivo”. Also, the “anti-tumour activity in vitro” value in [2] is recorded as “could not be supported in vitro”.

In turn, `O=C(O)c1cc([N+](=O)[O-])c(Cl)c([N+](=O)[O-])c1Cl` [Compound C1, 2,4-dichloro-3,5-dinitrobenzoic acid] returned an MTD in data set [3] of 75 mg/kg. Further, the response vs control in vivo at 100 mg/kg in [4] (Mus musculus, MAC15A, read-out: T/C%) was 243%. Besides, the values for the 50% cytotoxic concentration (CC50) in [5] and in [6] were 60 µM and 56 µM, respectively. The “% Tumour Weight Inhibition” value was determined as 91% in data set [7] (50 mg/kg ip, days 1,2,4,5,8); 88% in data set [7] (75 mg/kg ip, days 1,2,5,8); 39% in data set [11] (50 mg/kg ip, days 1,2,3,4,5,6,7,8,9); 45% in [11] (75 mg/kg ip, days 1,4,5). Further, the “inhibition of tumour growth” value in [7] (statement in words, MAC16 murine colon adenocarcinoma) is listed as “effectively inhibited growth”; in data set [9], “effectively inhibited growth”. Moreover, the MTD at 12 days in data set [8] and in data set [10] was 75 mg/kg each time.

For the compound `NC(=O)c1cc([N+](=O)[O-])c(Cl)c([N+](=O)[O-])c1Cl` [Compound C2, 2,4-dichloro-3,5-dinitrobenzamide], in data set [3], the MTD is 2.5 mg/kg. In data set [12], the “SI (Selectivity Index)” value is 35 and the IC50 came out at 2 µM. In data set [6], the half-maximal cytotoxic concentration (CC50) came out at 70 µM. In data set [13], the antitumour activity entry is recorded as “without antitumour activity”. The MTD at 12 days in data set [10] turned out to be 2.5 mg/kg. In addition, the “% Tumour Weight Inhibition” value in data set [11] (1.25 mg/kg ip, days 1,2,3,4,5,6,7,8,9) is on record as 17%. Besides, the “% Tumour Weight Inhibition” value in data set [11] (2.5 mg/kg ip, days 1,2,3,4,5,6,7,8,9) was 51%.

With `COC(=O)c1cc([N+](=O)[O-])c(Cl)c([N+](=O)[O-])c1Cl` [Compound C3, 2,4-dichloro-3,5-dinitrobenzoic acid methyl ester], the IC50 in data set [12] was determined as 0.3 µM. Moreover, half-maximal cytotoxicity in data set [6] (CC50) was put at 7 µM. In addition, the antitumour activity entry in [13] is listed as “without antitumour activity”.

Turning to `O=[N+]([O-])c1cc(S(=O)(=O)O)cc([N+](=O)[O-])c1Cl` [Compound S1, 4-chloro-3,5-dinitrobenzenesulfonic acid], the TC% in data set [14] (50 mg kg^-1 per day IP) stood at 259%; in [14] (100mg kg^-1 per day IP), 203%. Further, the “SI (Selectivity Index)” value in data set [15] was 5 and 3. Besides, in [15], the TI was found to be 28.6. For the same compound, the IC50 was 3 µM in data set [15] (read-out: IC50); 20 µM and 19 µM in data set [15] (read-out: IC50 (Antiviral)). For the same compound, the T/C% in [4] (mouse, in vivo) was 414%. In data set [5], the CD50 was determined as 80 µM. In data set [6], this compound displayed a CC50 of 100 µM.
